What was measured:
[1] = molecular target: Myeloid Cell Leukemia 1 (Mcl-1) (Homo sapiens (Human), UniProt Q07820); assay: Terbium labeled Mcl-1 HTRF binding assay with Cy5-labeled BIM BH3 peptide; details: Tb-Mcl-1 25 pM, Cy5 Bim peptide 8 nM; Ki=IC50/(1+[L]/Kd), [L]=8 nM, Kd=10 nM
Description: Terbium labeled Myeloid Cell Leukemia 1 (Mcl-1) homogeneous time-resolved fluorescence (HTRF) binding assay utilizing the BIM BH3 peptide (H2N—(C/Cy5Mal) WIAQELRRIGDEFN-OH) as the binding partner for Mcl-1.
This assay evaluated inhibition of the BH3 domain: Mcl-1 interaction by measuring the displacement of Cy5-labeled BIM BH3 peptide (H2N—(C/Cy5Mal) WIAQELRRIGDEFN-OH) in the HTRF assay format.
The following assay and stock buffers were prepared for use in the assay: (a) Stock buffer: 10 mM Tris-HCl, pH=7.5+150 mM NaCl, filtered, sterilized, and stored at 4° C.; and (b) 1× assay buffer, where the following ingredients were added fresh to stock buffer: 2 mM dithiothreitol (DTT), 0.0025% Tween-20, 0.1 mg/mL bovine serum albumin (BSA). The 1×Tb-Mcl-1+Cy5 Bim peptide solution was prepared by diluting the protein stock solution using the 1× assay buffer (b) to 25 pM Tb-Mcl-1 and 8 nM Cy5 Bim peptide.
Using the Acoustic ECHO, 100 nL of 100× test compound(s) were dispensed into individual wells of a white 384-well Perkin Elmer Proxiplate, for a final compound concentration of 1× and final DMSO concentration of 1%. Inhibitor control and neutral control (NC, 100 nL of 100% DMSO) were stamped into columns 23 and 24 of assay plate, respectively. Into each well of the plate was then dispensed 10 μL of the 1×Tb-Mcl-1+Cy5 Bim peptide solution. The plate was centrifuged with a cover plate at 1000 rpm for 1 minute, then incubated for 60 minutes at room temperature with plates covered.
The TR-FRET signal was read on an BMG PHERAStar FSX MicroPlate Reader at room temperature using the HTRF optic module (HTRF: excitation: 337 nm, light source: laser, emission A: 665 nm, emission B: 620 nm, integration start: 60 μs, integration time: 400 μs).
The BMG PHERAStar FSX MicroPlate Reader was used to measure fluorescence intensity at two emission wavelengths—665 nm and 620 nm—and report relative fluorescence units (RFU) for both emissions, as well as a ratio of the emissions (665 nm/620 nm)*10,000. The RFU values were normalized to percent inhibition as follows:
% inhibition=(((NC−IC)−(compound−IC))/(NC−IC))*100
where IC (inhibitor control, low signal)=mean signal of 1×Tb-MCl-1+Cy5 Bim peptide+ inhibitor control or 100% inhibition of Mcl-1; NC (neutral control, high signal)=mean signal 1×Tb-MCl-1+Cy5 Bim peptide with DMSO only or 0% inhibition
An 11-point dose response curve was generated to determine IC50 values (using GenData) based on the following equation:
Y=Bottom+(Top−Bottom)/(1+10^((log IC50−X)*HillSlope))
where Y=% inhibition in the presence of X inhibitor concentration; Top=100% inhibition derived from the IC (mean signal of Mcl-1+inhibitor control); Bottom=0% inhibition derived from the NC (mean signal of Mcl-1+DMSO); Hillslope=Hill coefficient; and IC50=concentration of compound with 50% inhibition in relation to top/neutral control (NC).
In this assay [L]=8 nM and Kd=10 nM
Representative compounds of the present invention were tested according to the procedure as described above, with results as listed in the Table below (n.d. means not determined).

[2] = test system: MOLP-8 human multiple myeloma cell line; assay: Caspase-Glo 3/7 apoptosis induction assay in MOLP-8 cells; type: cell-based; details: MOLP8 cells, 2 hours at 37° C., averaged over all runs on all batches
Text: MCL-1 is a regulator of apoptosis and is highly over-expressed in tumor cells that escape cell death. The assay evaluates the cellular potency of small-molecule compounds targeting regulators of the apoptosis pathway, primarily MCL-1, Bfl-1, Bcl-2, and other proteins of the Bcl-2 family. Protein-protein inhibitors disrupting the interaction of anti-apoptotic regulators with BH3-domain proteins initiate apoptosis.
The Caspase-Glo® 3/7 Assay is a luminescent assay that measures caspase-3 and -7 activities in purified enzyme preparations or cultures of adherent or suspension cells. The assay provides a proluminescent caspase-3/7 substrate, which contains the tetrapeptide sequence DEVD. This substrate is cleaved to release aminoluciferin, a substrate of luciferase used in the production of light. Addition of the single Caspase-Glo® 3/7 Reagent in an “add-mix-measure” format results in cell lysis, followed by caspase cleavage of the substrate and generation of a “glow-type” luminescent signal.
This assay uses the MOLP-8 human multiple myeloma cell line, which is sensitive to MCL-1 inhibition.
Cell cultures were maintained between 0.2 and 2.0×10^6 cells/mL. The cells were harvested by collection in 50 mL conical tubes. The cells were then pelleted at 500 g for 5 mins before removing supernatant and resuspension in fresh pre-warmed culture medium. The cells were counted and diluted as needed.
The assay reagent was prepared by transferring the buffer solution to the substrate vial and mixing. The solution may be stored for up to 1 week at 4° C. with negligible loss of signal.
Compounds were delivered in assay-ready plates (Proxiplate) and stored at −20° C.
Assays always include 1 reference compound plate containing reference compounds. The plates were spotted with 40 nL of compounds (0.5% DMSO final in cells; serial dilution; 30 μM highest conc. 1/3 dilution, 10 doses, duplicates). The compounds were used at room temperature and 4 μL of pre-warmed media was added to all wells except column 2 and 23. The negative control was prepared by adding 1% DMSO in media. The positive control was prepared by adding the appropriate positive control compound in final concentration of 60 μM in media. The plate was prepared by adding 4 μL negative control to column 23, 4 μL positive control to column 2 and 4 μL cell suspension to all wells in the plate. The plate with cells was then incubated at 37° C. for 2 hours. The assay signal reagent is the Caspase-Glo solution described above, and 8 μL was added to all wells. The plates were then sealed and measured after 30 minutes.
The activity of a test compound was calculated as percent change in apoptosis induction as follows:
LC=median of the Low Control values
HC=Median of the High Control values
=30 μM of positive control
=100% apoptosis induction
% Effect (AC50)=100−((sample−LC)/(HC−LC))*100
% Control=(sample/HC)*100
% Control min=((sample−LC)/(HC−LC))*100

Chain of Myeloid Cell Leukemia 1 (Mcl-1) (Q07820 whole entry): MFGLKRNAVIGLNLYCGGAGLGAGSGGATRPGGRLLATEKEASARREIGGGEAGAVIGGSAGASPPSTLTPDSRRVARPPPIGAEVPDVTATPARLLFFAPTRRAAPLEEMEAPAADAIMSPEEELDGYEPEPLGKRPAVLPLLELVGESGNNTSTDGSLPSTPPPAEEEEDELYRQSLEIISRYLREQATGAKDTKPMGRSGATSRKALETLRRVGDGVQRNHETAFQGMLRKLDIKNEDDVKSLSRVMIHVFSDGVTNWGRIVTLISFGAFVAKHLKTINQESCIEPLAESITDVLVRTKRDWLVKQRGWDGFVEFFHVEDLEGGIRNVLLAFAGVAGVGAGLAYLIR

Compound | Ki [1] [nM] | AC50 [2] [nM] | AC50 ([2]; Homo sapiens, MOLP-8, 2 h) [nM]
Cc1nn(C)c(C)c1-c1c(Cl)ccc2c3c(C(=O)O)n(c12)CCSCc1cc(n(C)n1)CCc1cc(c2ccc(F)cc2c1)OCCC3 (single isomer, unassigned) [Compound 7] | 0.086 | 231 | 
Cc1c(-c2c(Cl)ccc3c4c(C(=O)O)n(c23)CCCSCc2cc(n(C)n2)CCc2cc(c3ccc(F)cc3c2)OCCC4)c(CO)nn1C (single isomer, unassigned) [Compound 16] | 0.056 | 414 | 
Cc1nn(C)c(C)c1-c1c(Cl)ccc2c3c(C(=O)O)n(c12)CCCS(=O)(=O)Cc1cc(n(C)n1)CCc1cc(c2ccc(F)cc2c1)OCCC3 (single isomer, unassigned) [Compound 5] | 0.276 | 7270 | 
Cc1nn(C)c(C)c1-c1c(Cl)ccc2c3c(C(=O)O)n(c12)CCCSCc1cc(n(C)n1)CCc1cc(c2ccc(F)cc2c1)OCCC3 (single isomer, unassigned) [Compound 3] | 0.133 | 207 | 
COCCOCc1nn(C)c(C)c1-c1c(Cl)ccc2c3c(C(=O)O)n(c12)CCCSCc1cc(n(C)n1)CCc1cc(c2ccc(F)cc2c1)OCCC3 (single isomer, unassigned) [Compound 20] | 0.073 | 173 | 
Cc1nn(C)c(C)c1-c1c(Cl)ccc2c3c(C(=O)O)n(c12)CCCSCc1cc(n(C)n1)CSc1cc(c2ccccc2c1)OCCC3 [Compound 19] |  | 740 | 
COCCOCc1nn(C)c(C)c1-c1c(Cl)ccc2c3c(C(=O)O)n(c12)CCCSCc1cc(n(C)n1)CCc1cc(c2ccc(F)cc2c1)OCCC3 (single isomer, unassigned) [Compound 21] | 0.155 | 1010 | 
Cc1nn(C)c(C)c1-c1c(Cl)ccc2c3c(C(=O)O)n(c12)CCSCc1cc(n(C)n1)CCc1cc(c2ccccc2c1)OCCC3 (single isomer, unassigned) [Compound 11] | 0.307 |  | 1460
Cc1nn(C)c(C)c1-c1c(Cl)ccc2c3c(C(=O)O)n(c12)CCCSCc1cc(n(C)n1)CSc1cc(c2ccccc2c1)OCCC3 [Compound 18] |  | 3640 | 
Cc1nn(C)c(C)c1-c1c(Cl)ccc2c3c(C(=O)O)n(c12)CCCSCc1cc(n(C)n1)CCc1cc(c2ccc(F)cc2c1)OCCC3 (single isomer, unassigned) [Compound 2] | 0.084 |  | 130
Cc1c(-c2c(Cl)ccc3c4c(C(=O)O)n(c23)CCCSCc2cc(n(C)n2)CCc2cc(c3ccc(F)cc3c2)OCCC4)c(CO)nn1C (single isomer, unassigned) [Compound 17] | 0.08 | 1830 | 
Cn1nc2cc1CCc1cc(c3ccc(F)cc3c1)OCCCc1c(C(=O)O)n(c3c(-c4cncnc4)c(Cl)ccc13)CCC[S+]([O-])C2 (stereo not drawn) [Compound 15] | 0.426 |  | 
Cn1cc(-c2c(Cl)ccc3c4c(C(=O)O)n(c23)CCCSCc2cc(n(C)n2)CCc2cc(c3ccc(F)cc3c2)OCCC4)cn1 [Compound 8] | 0.977 |  | 1340
Cc1nn(C)c(C)c1-c1c(Cl)ccc2c3c(C(=O)O)n(c12)CCSCc1cc(n(C)n1)CCc1cc(c2ccccc2c1)OCCC3 (single isomer, unassigned) [Compound 12] | 0.396 | 1350 | 
Cc1nn(C)c(C)c1-c1c(Cl)ccc2c3c(C(=O)O)n(c12)CCCSCc1cc(n(C)n1)CCc1cc(c2ccc(F)cc2c1)OCCC3 [Compound 1] | 0.126 |  | 90.5
Cc1nn(C)c(C)c1-c1c(Cl)ccc2c3c(C(=O)O)n(c12)CCSCc1cc(n(C)n1)CSc1cc(c2ccccc2c1)OCCC3 (single isomer, unassigned) [Compound 14] | 0.423 | 1540 | 
Cc1nn(C)c(C)c1-c1c(Cl)ccc2c3c(C(=O)O)n(c12)CCCS(=O)(=O)Cc1cc(n(C)n1)CCc1cc(c2ccc(F)cc2c1)OCCC3 (single isomer, unassigned) [Compound 4] | 0.251 |  | 7030
Cc1nn(C)c(C)c1-c1c(Cl)ccc2c3c(C(=O)O)n(c12)CCSCc1cc(n(C)n1)CSc1cc(c2ccccc2c1)OCCC3 (single isomer, unassigned) [Compound 13] | 0.392 |  | 1340
Cc1nn(C)c(C)c1-c1c(Cl)ccc2c3c(C(=O)O)n(c12)CCSCc1cc(n(C)n1)CCc1cc(c2ccc(F)cc2c1)OCCC3 (single isomer, unassigned) [Compound 6] | 0.056 |  | 237
COCCn1nc(C)c(-c2c(Cl)ccc3c4c(C(=O)O)n(c23)CCCSCc2cc(n(C)n2)CCc2cc(c3ccc(F)cc3c2)OCCC4)c1C (single isomer, unassigned) [Compound 10] | 0.093 | 160 | 
COCCn1nc(C)c(-c2c(Cl)ccc3c4c(C(=O)O)n(c23)CCCSCc2cc(n(C)n2)CCc2cc(c3ccc(F)cc3c2)OCCC4)c1C (single isomer, unassigned) [Compound 9] | 0.139 |  | 232
